# In patent US20250034167A1, “HETEROCYCLIC COMPOUNDS AND METHODS OF USE” (AMGEN INC., priority 2021, published 2025):
# Like-named read-outs stand apart in the source and are kept apart here.
# Experiments:
# [1] = system: Phosphorylation of ERK1/2 in AsPC-1 cells; test: Phospho-ERK1/2 MSD Assay; assay type: cell-based
# Method: Sixteen hours prior to compound treatment, AsPC-1 cells were seeded in 96-well cell culture plates at a density of 25,000 cells/well and incubated at 37° C., 5% CO2. A compound dose-response titration was diluted in growth media, added to appropriate wells of a cell culture plate, and then incubated at 37° C., 5% CO2 for 2 hours.
# [2] = target: T1, His-tagged KRAS G12D protein (Homo sapiens, UniProt P01116, G12D)
# [3] = target: T1, His-tagged KRAS G12D protein; test: biochemical
# [4] = Homo sapiens, ASPC1, 2 h, read-out: 2 h p-ERK (AsPC-1 cells), IC50, AsPC-1 cells, 2 h compound treatment
# T1 sequence (P01116 1-188 isoform P01116-2 G12D): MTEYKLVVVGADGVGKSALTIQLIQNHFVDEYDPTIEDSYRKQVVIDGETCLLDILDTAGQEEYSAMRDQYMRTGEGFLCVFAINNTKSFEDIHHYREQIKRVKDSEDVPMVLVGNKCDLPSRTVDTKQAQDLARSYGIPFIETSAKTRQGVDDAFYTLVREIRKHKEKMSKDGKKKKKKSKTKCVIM
"IC50 ([1]; read-out: 2 h p-ERK (AsPC-1 cells), IC50, AsPC-1 cells, 2 h compound treatment) [nM]",IC50 [2] [nM],"IC50 [1, 4] [nM]",IC50 [3] [nM],Structure (SMILES)
259,3,–,–,"CCc1c(F)ccc2cc(O)cc(-c3ncc4c(N5CCCC(C#N)CC5)nc(OC[C@@]56CCCN5C[C@H](F)C6)nc4c3F)c12 (single isomer, unassigned) [Example 55]"
–,–,1610,2,"CCc1c(F)ccc2cc(O)cc(-c3ncc4c(N5CCC[C@@H](C(N)=O)C5)nc(OC[C@@]56CCCN5C[C@H](F)C6)nc4c3F)c12 [Example 162, (R)-1-(7-(8-Ethyl-7-fluoro-3-hydroxynaphthalen-1-yl)-8-fluoro-2-(((2R,7aS)-2-fluorotetrahydro-1H-pyrrolizin-7a(5H)-yl)methoxy)pyrido[4,3-d]pyrimidin-4-yl)piperidine-3-carboxamide]"
–,–,94,3,"Oc1cc(-c2ncc3c(N4CCCCCC4)nc(OC[C@@]45CCCN4C[C@H](F)C5)nc3c2F)c2c(F)c(F)ccc2c1 [Example 166, 4-(4-(Azepan-1-yl)-8-fluoro-2-(((2R,7aS)-2-fluorotetrahydro-1H-pyrrolizin-7a(5H)-yl)methoxy)pyrido[4,3-d]pyrimidin-7-yl)-5,6-difluoronaphthalen-2-ol]"
–,–,12,2,"C[C@@]1(O)CCCN(c2nc(OC[C@@]34CCCN3C[C@H](F)C4)nc3c(F)c(-c4cc(O)cc5cccc(C6CC6)c45)ncc23)C1 [Example 167, (R)-1-(7-(8-Cyclopropyl-3-hydroxynaphthalen-1-yl)-8-fluoro-2-(((2R,7aS)-2-fluorotetrahydro-1H-pyrrolizin-7a(5H)-yl)methoxy)pyrido[4,3-d]pyrimidin-4-yl)-3-methylpiperidin-3-ol]"
–,–,10,8,"C=CCC1CCCc2cc(O)cc(-c3ncc4c(N5CCC[C@@](C)(O)C5)nc(OC[C@@]56CCCN5C[C@H](F)C6)nc4c3F)c21 (stereo partly drawn) [Example 175, (3R)-1-(7-(8-Allyl-3-hydroxy-5,6,7,8-tetrahydro-naphthalen-1-yl)-8-fluoro-2-(((2R,7aS)-2-fluorotetrahydro-1H-pyrrolizin-7a(5H)-yl)methoxy)pyrido[4,3-d]pyrimidin-4-yl)-3-methyl-piperidin-3-ol]"
–,–,18,5,"CCc1c(F)ccc2cc(O)cc(-c3ncc4c(N5CCC[C@@](C)(O)C5)nc(OCC56CCCN5CCC6)nc4c3F)c12 [Example 179, (R)-1-(7-(8-Ethyl-7-fluoro-3-hydroxynaphthalen-1-yl)-8-fluoro-2-((tetrahydro-1H-pyrrolizin-7a(5H)-yl)methoxy)pyrido[4,3-d]pyrimidin-4-yl)-3-methylpiperidin-3-ol]"
